Source: the supplement of paper PMC11208160

Experiment: recombinant UMI read abundance after kanamycin selection (control-corrected) (log10(CPM+1)); higher = more efficient recombination; extreme values may be limits of the assay; sequences stand for … in AGTGCAGAGAAAATCGGCCAGTTTTCTCTGCCTGCAGTCCGCATGCCGTGGGACCCCTTGGGTTCTAACCTGTTGCCTAGATTTATGCAGCGGACTGCCTTTCTCCCAAAGTGATAAACCGG…AGGTTGGTTTCACT; site = the 11-nt donor
How it was run: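 Each donor and donor-binding-loop pair was tracked by a 12-nt UMI on a plasmid carrying a promoterless kanamycin gene. With a second plasmid supplying a fixed target and T7-inducible IS621 bridge recombinase, the pool was plated in Escherichia coli on IPTG (0.07 mM) plus kanamycin or unselected. Sequencing of recombinant UMIs across the donor–target junction gave counts expressed as log10(CPM+1) after replicate averaging and control-derived scaling.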
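Note: IS621 bridge recombinase in Escherichia coli cells against a fixed T5 target plasmid.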

Going from “CTCCCTACATGGACCGGTTTTCCCGGTAATCCGTATTTGAG (site CTCCCTACTAT)” to “CTCCCTACATGGACCGGTTTTCCCGGTAATCCGTATTTGAG (site CTCCCTACTCA)”, the “recombinant UMI read abundance (log10)” value falls from 0.455 to 0.0198.

“CTCCCTACATGGACCGGTTTTCCCGGTAATCCGTATTTGAG (site CTCCCTACTCC)” and “CTCCCTACATGGACCGGTTTTCCCGGTAATCCGTATTTGAG (site CTCCCTACTCG)” are within 0.2 log units of each other in “recombinant UMI read abundance (log10)” value: 0.0101 for the first, 0.00797 for the second.

First: CTCCCTACATGGACCGGTTTTCCCGGTAATCCGTATTTGAG (site CTCCCTACTCT)
Second: CTCCCTACATGGACCGGTTTTCCCGGTAATCCGTATTTGAG (site CTCCCTACTGT)
The “recombinant UMI read abundance (log10)” value of the first is higher: 0.248 for the first, 0 for the second.

“CTCCCTACATGGACCGGTTTTCCCGGTAATCCGTATTTGAG (site CTCCCTACTTT)” and “CTCCCTACATGGACCGGTTTTCCCGGTAATCCGTATTTGAG (site CTCCCTCCTCT)” are within 0.2 log units of each other in “recombinant UMI read abundance (log10)” value: 0.0136 for the first, 0.00493 for the second.

“CTCCCTACATGGACCGGTTTTCCCGGTAATCCGTATTTGAG (site CTCCCTGCTCT)” and “CTCCCTACATGGACCGGTTTTCCCGGTAATCCGTATTTGAG (site CTCCCTTCTCT)” are within 0.2 log units of each other in “recombinant UMI read abundance (log10)” value: 0.0117 for the first, 0.0166 for the second.

“CTCCCTACATGGACCGGTTTTCCCGGTAATCCGTATTTGAG (site CTCCGTACTCT)” and “CTCCCTACATGGACCGGTTTTCCCGGTAATCCGTATTTGAG (site CTCCTTACTCT)” are within 0.2 log units of each other in “recombinant UMI read abundance (log10)” value: 0.0179 for the first, 0.00587 for the second.

“CTCCCTACATGGACCGGTTTTCCCGGTAATCCGTATTTGAG (site CTCGCTACTCT)” and “CTCCCTACATGGACCGGTTTTCCCGGTAATCCGTATTTGAG (site CTCTCTACTCT)” are within 0.2 log units of each other in “recombinant UMI read abundance (log10)” value: 0.0283 for the first, 0.00795 for the second.

“CTCCCTACATGGACCGGTTTTCCCGGTAATCCGTATTTGAG (site CTGCCTACTCT)” and “CTCCCTACATGGACCGGTTTTCCCGGTAATCCGTATTTGAG (site CTTCCTACTCT)” are within 0.2 log units of each other in “recombinant UMI read abundance (log10)” value: 0.0259 for the first, 0.0102 for the second.

“CTCCCTACATGGACCGGTTTTCCCGGTAATCCGTATTTGAG (site GTCCCTACTCT)” and “CTCCCTACATGGACCGGTTTTCCCGGTAATCCGTATTTGAG (site TTCCCTACTCT)” are within 0.2 log units of each other in “recombinant UMI read abundance (log10)” value: 0.0115 for the first, 0.00609 for the second.

First: CTCCCTGCATGGACCGGTTTTCCCGGTAATCCGTATTTGAG (site CTCCCTACTCT)
Second: CTCCCTGCATGGACCGGTTTTCCCGGTAATCCGTATTTGAG (site CTCCCTCCTCT)
The “recombinant UMI read abundance (log10)” value of the first is higher: 0.664 for the first, 0.00848 for the second.

Going from “CTCCCTGCATGGACCGGTTTTCCCGGTAATCCGTATTTGAG (site CTCCCTGCTCT)” to “CTCCCTGCATGGACCGGTTTTCCCGGTAATCCGTATTTGAG (site CTCCCTTCTCT)”, the “recombinant UMI read abundance (log10)” value falls from 1.16 to 0.325.

“CTCCCTTCATGGACCGGTTTTCCCGGTAATCCGTATTTGAG (site CTCCCTACTCT)” and “CTCCCTTCATGGACCGGTTTTCCCGGTAATCCGTATTTGAG (site CTCCCTCCTCT)” are within 0.2 log units of each other in “recombinant UMI read abundance (log10)” value: 0.0118 for the first, 0.0285 for the second.

First: CTCCCTTCATGGACCGGTTTTCCCGGTAATCCGTATTTGAG (site CTCCCTGCTCT)
Second: CTCCCTTCATGGACCGGTTTTCCCGGTAATCCGTATTTGAG (site CTCCCTTCTCT)
The “recombinant UMI read abundance (log10)” value of the first is lower: 0.00848 for the first, 0.898 for the second.

Going from “CTCCGAACATGGACCGGTTTTCCCGGTAATCCGTATTTGCG (site CTCCGAACTCG)” to “CTCCGTGCATGGACCGGTTTTCCCGGTAATCCGTATTTGGC (site CTCCGTGCTGC)”, the “recombinant UMI read abundance (log10)” value rises from 0.829 to 1.87.

First: CTCGAAACATGGACCGGTTTTCCCGGTAATCCGTATTTGCA (site CTAGAAACTTG)
Second: CTCGAAACATGGACCGGTTTTCCCGGTAATCCGTATTTGCA (site CTCGAAACTTG)
The “recombinant UMI read abundance (log10)” value of the first is lower: 0 for the first, 2.34 for the second.

“CTCGAAACATGGACCGGTTTTCCCGGTAATCCGTATTTGCA (site CTGGAAACTTG)” and “CTCGAAACATGGACCGGTTTTCCCGGTAATCCGTATTTGCA (site CTTGAAACTTG)” are the same in “recombinant UMI read abundance (log10)” value: 0 for the first, 0 for the second.

Compared with “CTCGAACCATGGACCGGTTTTCCCGGTAATCCGTATTTGAC (site CTCGAACCTGT)”, “CTCGAATCATGGACCGGTTTTCCCGGTAATCCGTATTTGAA (site CTCGAATCTTT)” is higher in “recombinant UMI read abundance (log10)” value: 0 for the first, 1.86 for the second.

Going from “CTCGAGTCATGGACCGGTTTTCCCGGTAATCCGTATTTGTG (site CTCGAGTCTCA)” to “CTCGATACATGGACCGGTTTTCCCGGTAATCCGTATTTGCT (site CTCGATACTAG)”, the “recombinant UMI read abundance (log10)” value rises from 1.87 to 2.37.

“CTCGCTACATGGACCGGTTTTCCCGGTAATCCGTATTTGAT (site CTCGCTACTAT)” and “CTCGGATCATGGACCGGTTTTCCCGGTAATCCGTATTTGGA (site CTCGGATCTTC)” are within 0.2 log units of each other in “recombinant UMI read abundance (log10)” value: 1.7 for the first, 1.56 for the second.
